Laboratory results as given in patent US6635641B2 (Agouron Pharmaceuticals, Inc., priority 2000, dated 2003).
Where a name gives a salt, the structure may show the parent alone.

target: T1, phosphorylated VEGF-R2Δ50 (FLVK-P) (Homo sapiens, UniProt P35968, DEL940-989/E990V); experiment: VEGF-R2 coupled spectrophotometric assay, phosphorylated construct (FLVK-P); assay type: biochemical; conditions: not given
T1 construct: VEGF-R2Δ50 contains residues 806-939 and 990-1171; made in house; host or cells: baculovirus/insect cells
Source text: A construct (VEGF-R2Δ50) of the cytosolic domain of human vascular endothelial growth factor receptor 2 (VEGF-R2) lacking the 50 central residues of the 68 residues of the kinase insert domain was expressed in a baculovirus/insect cell system. Of the 1356 residues of full-length VEGF-R2, VEGF-R2Δ50 contains residues 806-939 and 990-1171, and also one point mutation (E990V) within the kinase insert domain relative to wild-type VEGF-R2. See commonly assigned, co-pending U.S. patent application Ser. No. 09/390,326, filed Sep. 7, 1999, incorporated by reference herein, for discussion of VEGF constructs and expression systems. Autophosphorylation of the purified construct was performed by incubation of the enzyme at a concentration of 4 μM in the presence of 3 mM ATP and 40 mM MgCl2 in 100 mM Hepes, pH 7.5, containing 5% glycerol and 5 mM DTT, at 4° C. for 2 h. […] See Parast et al., Biochemistry, 37, 16788-16801 (1998).
The production of ADP from ATP that accompanies phosphoryl transfer was coupled to oxidation of NADH using phosphoenolpyruvate (PEP) and a system having pyruvate kinase (PK) and lactic dehydrogenase (LDH). The oxidation of NADH was monitored by following the decrease of absorbance at 340 nm (e340=6.22 cm^−1 mM^−1) using a Beckman DU 650 spectrophotometer. Assay conditions for phosphorylated VEGF-R2Δ50 (indicated as FLVK-P in the tables below) were the following: 1 mM PEP; 250 μM NADH; 50 units of LDH/mL; 20 units of PK/mL; 5 mM DTT; 5.1 mM poly(E4Y1); 1 mM ATP; and 25 mM MgCl2 in 200 mM Hepes, pH 7.5. Assay conditions for unphosphorylated VEGF-R2Δ50 (indicated as FLVK in the tables) were the following: 1 mM PEP; 250 μM NADH; 50 units of LDH/mL; 20 units of PK/mL; 5 mM DTT; 20 mM poly(E4Y1); 3 mM ATP; and 60 mM MgCl2 and 2 mM MnCl2 in 200 mM Hepes, pH 7.5. Assays were initiated with 5 to 40 nM of enzyme. Ki values were determined by measuring enzyme activity in the presence of varying concentrations of test compounds. The data were analyzed using Enzyme Kinetic and Kaleidagraph software.

T1 sequence (P35968 with tags, fused parts or gaps DEL940-989/E990V limits assumed): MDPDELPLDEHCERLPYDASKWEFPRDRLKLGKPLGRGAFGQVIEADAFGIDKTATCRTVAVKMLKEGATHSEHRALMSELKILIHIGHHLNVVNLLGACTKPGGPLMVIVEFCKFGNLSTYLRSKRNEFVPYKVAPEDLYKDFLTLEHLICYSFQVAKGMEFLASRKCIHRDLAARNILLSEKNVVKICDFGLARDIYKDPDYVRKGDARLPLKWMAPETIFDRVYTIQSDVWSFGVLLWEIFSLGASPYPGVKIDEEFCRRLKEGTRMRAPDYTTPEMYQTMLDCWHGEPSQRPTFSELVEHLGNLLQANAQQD

SMILES | Ki
Cc1cc(C)cc(NC(=O)c2cccc(CSc3ncnc4[nH]ncc34)c2)c1 [Example B-21, 3-[(1H-Pyrazolo[3,4-d]pyrimidin-4-yl)sulfanylmethyl]-N(3,5-dimethylphenyl)-benzamide] | 0.208 µM
COc1ccccc1NC(=O)c1cccc(CSc2ncnc3[nH]ncc23)c1 [Example B-9, N-(2-Methoxyphenyl)-3-[(1H-pyrazolo[3,4-d]pyrimidin-4-yl)sulfanylmethyl]benzamide] | 17 µM
Cc1cc(NC(=O)c2cccc(CSc3ncnc4[nH]ncc34)c2)no1 [Example B-4, N-(5-Methylisoxazol-3-yl)-3-[(1H-pyrazolo[3,4-d]pyrimidin-4-yl)sulfanylmethyl]benzamide] | 35 µM
COc1ccc(NC(=O)c2cccc(CSc3ncnc4[nH]ncc34)c2)cn1 [Example B-2] | 1.82 µM
COc1cc(NC(=O)c2cccc(OCc3cncc4ccccc34)c2)cc(OC)c1OC [Example K-2, 3-(Isoquinolin-4-yl)methoxy-N-(3,4,5-trimethoxyphenyl)benzamide hydrochloride] | 0.138 µM
COc1cc(NC(=O)c2cccc(OCc3cccnc3)c2)cc(OC)c1OC [Example K-5, 3-(Pyridin-3-yl)methoxy-N-(3,4,5-trimethoxyphenyl)benzamide] | 1.27 µM
Cc1cc(NC(=O)c2cccc(CSc3nc(N)n[nH]3)c2)ccc1C(C)C [Example A-4, N-(4-Isopropyl-3-methylphenyl)-3-[(5-amino-2H-[1,2,4]triazol-3-yl)sulfanylmethyl]benzamide] | 13 µM
Cc1ccc2cc(NC(=O)c3cccc(SCc4cccnc4)c3)ccc2n1 [Example D-3, N-(2-Methyl-quinolin-6-yl)-3-(pyridin-3-ylmethylsulfanyl)-benzamide dihydrochloride] | 0.133 µM
C=CCn1ccc2cc(NC(=O)c3cccc(OCc4cccnc4)c3)ccc21 [Example K-7, N-(1-Allyl-1H-indol-5-yl)-3-(pyridin-3-yl)methoxy-benzamide] | 0.122 µM
O=C(Nc1ccc2ccccc2c1)c1cccc(OCc2cccnc2)c1 [Example K-6, N-(Naphthalen-2-yl)-3-(pyridin-3-yl)methoxybenzamide] | 0.2 µM
O=C(Nc1cccc(OC(F)(F)F)c1)c1cccc(CSc2ncnc3[nH]ncc23)c1 [Example B-20] | 0.026 µM
O=C(Nc1cccc(S(=O)(=O)C(F)(F)F)c1)c1cccc(CSc2ncnc3[nH]ncc23)c1 [Example B-24, 3-[(1H-Pyrazolo[3,4-d]pyrimidin-4-yl)sulfanylmethyl]-N(3-trifluoromethylsulfonylphenyl)-benzamide] | 0.037 µM
O=C(Nc1ccc2ncccc2c1)c1cccc(OCc2cccnc2)c1 [Example K-8, 3-(Pyridin-3-yl)methoxy-N-quinolin-6-yl-benzamide] | 0.707 µM
O=C(NCc1ccncc1)c1cccc(CSc2ncnc3[nH]ncc23)c1 [Example B-5, N-(Pyridin-4-yl)methyl-3-[(1H-pyrazolo[3,4-d]pyrimidin-4-yl)sulfanylmethyl]benzamide] | 11 µM
COc1ccccc1CNC(=O)c1cccc(CSc2ncnc3[nH]ncc23)c1 [Example B-7, N-(2-Methoxybenzyl)-3-[(1H-pyrazolo[3,4-d]pyrimidin-4-yl)sulfanylmethyl]benzamide] | 3.31 µM

Other lines, results leading:

Ki | SMILES
0.068 µM | Cc1ccc2cc(NC(=O)c3cccc(CCc4cccnc4)c3)ccc2n1 [Example U-1, N-(2-Methyl-quinolin-6-yl)-3-(2-pyridin-3-yl-ethyl)-benzamide hydrochloride]
0.325 µM | O=C(NOCc1ccccc1)c1cccc(OCc2cncc3ccccc23)c1 [Example R-7, N-Benzyloxy-3-(isoquinolin-4-ylmethoxy)-benzamide]
0.0136 µM | Cc1cc(NC(=O)c2cc(CCc3cncc4ccccc34)ccc2F)ccc1C(C)C [Example T-1, 2-Fluoro-N-(4-isopropyl-3-methyl-phenyl)-5-(2-isoquinolin-4-yl-ethyl)-benzamide]

same assay, conditions: @ 50 nM; read-out: FLVK-P percent inhibition

SMILES | inhibition at 0.05 µM
C=CCc1cc(NC(=O)c2cccc(OCc3cncc4ccccc34)c2)cc(CC=C)c1C [Example R-1, N-(3,5-Diallyl-4-methyl-phenyl)-3-(isoquinolin-4-ylmethoxy)-benzamide] | 49%
Cc1cc(C)nc(NC(=O)c2cccc(CCc3cncc4ccccc34)c2)c1 [Example S-6, N-(4,6-Dimethyl-pyridin-2-yl)-3-(2-isoquinolin-4-yl-ethyl)-benzamide] | 6%

same assay, conditions: @ 1 μM; read-out: FLVK-P percent inhibition

SMILES | inhibition at 1 µM
CN(C)c1ccc(NC(=O)c2cccc(CSc3ncnc4[nH]ncc34)c2)cc1 [Example B-23, 3-[(1H-Pyrazolo[3,4-d]pyrimidin-4-yl)sulfanylmethyl]-N(4-dimethylaminophenyl)-benzamide] | 17%
CC(C)c1ccc(NC(=O)c2cccc(CSc3ncnc4[nH]ncc34)c2)cc1 [Example B-19, 3-[(1H-Pyrazolo[3,4-d]pyrimidin-4-yl)sulfanylmethyl]-N(4-isopropylphenyl)-benzamide] | 42%
COc1cc(/C=C/c2cc(CNc3cccc(C(=O)Nc4ccccc4)c3)n[nH]2)ccc1O [Example I-2, 3-[({5-[(E)-2-(4-hydroxy-3-methoxyphenyl)ethenyl]-1H-pyrazol-3-yl}methyl)amino]-N-phenylbenzamide] | 16%
CC(O)c1cccc(NC(=O)c2cccc(CSc3ncnc4[nH]ncc34)c2)c1 (centres unmarked) [Example B-22] | 32%
CN(C)c1cccc(NC(=O)c2cccc(CSc3ncnc4[nH]ncc34)c2)c1 [Example B-25, 3-[(1H-Pyrazolo[3,4-d]pyrimidin-4-yl)sulfanylmethyl]-N(3-dimethylaminophenyl)-benzamide] | 26%
O=C(Nc1ccccc1)c1cccc(CCc2cncc3ccccc23)c1 [Example S-1, 3-(2-Isoquinolin-4-yl-ethyl)-N-phenyl-benzamide] | 2%

Next, values leading:

inhibition at 1 µM | SMILES
9% | Cc1cc(C)c2ccc(NC(=O)c3cccc(OCc4cncc5ccccc45)c3)nc2n1 [Example R-9, N-(5,7-dimethyl[1,8]naphthydrin-2-yl)-3-(isoquinolin-4-ylmethoxy)-benzamide]
28% | CC1CC(NC(=O)c2cccc(CCc3cncc4ccccc34)c2)CC(C)(C)C1 (centres unmarked) [Example S-2, 3-(2-Isoquinolin-4-yl-ethyl)-N-(3,3,5-trimethyl-cyclohexyl)-benzamide]
42% | COc1cc(C(=O)Nc2cccc(CSc3ncnc4[nH]ncc34)c2)ccc1O [Example V-3, N-{3-[(1H-pyrazolo[3,4-d]-pyrimidin-4-yl)sulfanylmethyl]phenyl}-(4-hydroxy-3-methoxy)benzamide]

same assay, conditions: @ 5 μM; read-out: FLVK-P percent inhibition

SMILES | inhibition at 5 µM
O=C(NNc1ccc(C(F)(F)F)cc1)c1cccc(OCc2cncc3ccccc23)c1 [Example R-6, 3-(Isoquinolin-4-ylmethoxy)-benzoic acid N′-(4-trifluoromethyl-phenyl)hydrazide] | 16%
O=C(NNc1ccccc1)c1cccc(OCc2cncc3ccccc23)c1 [Example R-8, 3-(Isoquinolin-4-ylmethoxy)-benzoic acid N′-phenyl-hydrazide] | 4%

same assay, conditions: μM

SMILES | Ki
COc1cc(NC(=O)c2cccc(CSc3nc(N)n[nH]3)c2)cc(OC)c1OC [Example A-2, N-(3,4,5-Trimethoxyphenyl)-3-[(5-amino-2H-[1,2,4]triazol-3-yl)sulfanylmethy]benzamide] | 100 µM
